Test system: P815 cells
Test: In vivo CTL induction by P815-1 formulations (anti-P1A response), 51Cr release cytotoxicity assay
Set-up: species or system DBA/2 mice
Settings: 30 µg peptide or equivalent, two weeks after a single immunization; restimulated with P815-2 pulsed splenocytes; Fig. 4a
Procedure: C57BL/6 mice were immunized subcutaneously with 15-30µg of soluble Ova or Ova encapsulated in microspheres (Ova/PLG). In the P1A system, DBA/2 mice were similarly immunized with P815-1 peptide alone or P815-1/PLG. PLG is defined herein as PLG1, which represents the polymeric composition of the single component system, or PLG2a-XX, which represents the polymeric composition of the blend component system. Antigens were suspended in 200 iL of PBS and injected on both flanks of the animal. As controls, mice were immunized with Ova admixed with alum as adjuvant. Fourteen to 21 days after the immunization, splenocytes were prepared as single cell suspensions and ~50'10^6 cells from each mouse were incubated with 2.5'10^6 irradiated (200,000 rad) EG7.Ova cells. […] After five days of culture, CTL activities were measured in a ^51Cr release cytotoxicity assay as described below.
To conduct a CTL assay, target cells were incubated with ^51Cr at 100 ìCi/10^6 cells at 37°C for 60 min. […] After 4 hours of incubation at 37°C, supernatant was collected from test wells using Skatron filter strips and counted on a Packard Cobra II a counter. Specific lysis was calculated as: % specific lysis =(Experimental release - Spontaneous release)/(Maximum release - Spontaneous release)X 100 [formula] […]

KKKRYSLEEILPYLGWLVFAWTTSKKK [soluble P815-1 peptide, 28 amino acid peptide, residues 28-49 of the P1A antigen with 3 lysine residues added to both termini]
CTL activity of splenocytes against P815 cells: Minimal CTL priming
